Results from paper PMC12983307 (Journal of the American Chemical Society, 2026).
Bridge positions count the residues as written; N and C are the ends. Peptide text beside a SMILES is read from it.

Target: AgrC (Staphylococcus aureus, UniProt O07911)
Experiment: fluorescence polarization displacement of TAMRA-AIP-III D4A from AgrC nanodiscs
Type: binding
Conditions: read-out: % reduction in polarization at 10 μM

AgrC, sequence (O07911 entry or part of it): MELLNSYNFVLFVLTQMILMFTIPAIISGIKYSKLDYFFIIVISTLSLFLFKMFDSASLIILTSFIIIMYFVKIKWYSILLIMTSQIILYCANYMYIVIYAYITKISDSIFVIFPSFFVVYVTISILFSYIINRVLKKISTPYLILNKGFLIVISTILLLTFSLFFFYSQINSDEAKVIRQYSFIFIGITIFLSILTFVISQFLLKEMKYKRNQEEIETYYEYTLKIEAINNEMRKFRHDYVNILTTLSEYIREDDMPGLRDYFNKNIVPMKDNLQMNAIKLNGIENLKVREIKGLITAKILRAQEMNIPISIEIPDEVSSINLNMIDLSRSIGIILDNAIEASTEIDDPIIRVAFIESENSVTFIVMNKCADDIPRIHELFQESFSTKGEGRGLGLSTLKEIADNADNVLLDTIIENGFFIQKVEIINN

`CC[C@H](C)[C@@H]1NC(=O)[C@H](Cc2ccccc2)NC(=O)[C@H](CC(=O)O)NC(=O)[C@@H](NC(=O)[C@@H](NC(=O)[C@H](CO)NC(=O)[C@@H](N)Cc2ccc(O)cc2)[C@@H](C)O)CSC(=O)[C@H](CCSC)NC1=O` [AIP-I] (H-YSTCDFIM; thioester 4-C) showed an inhibition at 10 µM of 62%.
